The test system of series [1] is in vivo model of HIV-1 infection. Conditions: reversing microglial activation, restoring normal synaptic architecture; cited from earlier work.
In series [2] the test system is primary rat hippocampal neurons and dorsal root ganglion neurons. The following applies: cited from earlier work.
Series [3] concerns the target T1, MLK3 (Rattus norvegicus, UniProt Q66HA1).
T1 construct: autophosphorylation of MLK3 in primary rat neurons; endogenous in cells; host or cells: primary rat neurons
Conditions: primary rat neurons; cited from earlier work.

Series [4] is described as follows: Pharmacokinetic evaluation in mice (plasma and brain AUC). The format is in vivo. The arrangement: unit not given here. Conditions: CL57 BL/6 mice, single IV injection 10 mg/kg, brain homogenate. How it is done:
Several compounds disclosed herein were evaluated in a standard murine pharmacokinetic model. […] Three mice in each group were used for blood and brain collection at each time point. […] The brain of each animal was collected after the final blood collection. The whole tissue was harvested, excised and rinsed by saline, dried by filter paper, and then placed into one tube per tissue per animal. All samples were stored at −20° C. until bioanalysis. Compound concentrations in plasma and brain homogenate were determined using a high performance liquid chromatography/mass spectrometry (HPLC/MS/MS) method (Agilent 1100 series HPLC, AB Inc. API4000 triple-quadrupole with an ESI interface and Analyst 1.4 software). Results in the form of area under the time-versus-concentration curve (AUC) are given below in Table 11.

The target in series [5] is T2, MLK3 (Homo sapiens, UniProt Q16584).
T2 construct: purchased Dundee DU8313
T2 sequence (Q16584 whole entry): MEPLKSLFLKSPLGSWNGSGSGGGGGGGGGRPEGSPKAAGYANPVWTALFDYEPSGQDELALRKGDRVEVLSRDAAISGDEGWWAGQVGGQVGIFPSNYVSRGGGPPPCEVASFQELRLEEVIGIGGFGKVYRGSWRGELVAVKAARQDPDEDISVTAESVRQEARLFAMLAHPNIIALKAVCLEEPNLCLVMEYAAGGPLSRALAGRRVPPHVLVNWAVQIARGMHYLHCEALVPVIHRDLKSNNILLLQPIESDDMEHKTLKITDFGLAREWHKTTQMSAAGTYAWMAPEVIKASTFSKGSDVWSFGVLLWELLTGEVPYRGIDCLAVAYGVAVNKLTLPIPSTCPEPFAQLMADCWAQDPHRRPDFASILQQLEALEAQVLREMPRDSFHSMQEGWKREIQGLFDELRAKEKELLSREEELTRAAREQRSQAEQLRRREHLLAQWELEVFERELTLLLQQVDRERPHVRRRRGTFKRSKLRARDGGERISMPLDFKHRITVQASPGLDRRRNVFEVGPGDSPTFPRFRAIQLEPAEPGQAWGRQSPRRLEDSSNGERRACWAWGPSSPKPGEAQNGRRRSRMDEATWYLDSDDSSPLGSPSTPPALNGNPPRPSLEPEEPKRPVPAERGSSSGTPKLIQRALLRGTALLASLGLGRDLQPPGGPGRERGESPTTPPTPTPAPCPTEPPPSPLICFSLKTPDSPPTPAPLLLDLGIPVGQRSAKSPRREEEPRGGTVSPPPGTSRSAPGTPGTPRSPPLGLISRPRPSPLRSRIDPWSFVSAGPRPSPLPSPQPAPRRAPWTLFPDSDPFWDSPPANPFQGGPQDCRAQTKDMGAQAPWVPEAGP
Nature of the series: Radiometric filter plate MLK3 assay. On MK3 IC50: 2 µM cold ATP (Km). In kind it is biochemical. As to the method:
After a twenty minute incubation, the reactions were washed through filter plates and read on a scintillation counter. Results are shown in Table 10 below, in which +++ indicates ≦0.1 μM, ++ indicates >0.1 μM and ≦1 μM, and + indicates >1 μM.

Read-outs that look alike come from different tables or passages of the source.

T1 sequence (Q66HA1 whole entry): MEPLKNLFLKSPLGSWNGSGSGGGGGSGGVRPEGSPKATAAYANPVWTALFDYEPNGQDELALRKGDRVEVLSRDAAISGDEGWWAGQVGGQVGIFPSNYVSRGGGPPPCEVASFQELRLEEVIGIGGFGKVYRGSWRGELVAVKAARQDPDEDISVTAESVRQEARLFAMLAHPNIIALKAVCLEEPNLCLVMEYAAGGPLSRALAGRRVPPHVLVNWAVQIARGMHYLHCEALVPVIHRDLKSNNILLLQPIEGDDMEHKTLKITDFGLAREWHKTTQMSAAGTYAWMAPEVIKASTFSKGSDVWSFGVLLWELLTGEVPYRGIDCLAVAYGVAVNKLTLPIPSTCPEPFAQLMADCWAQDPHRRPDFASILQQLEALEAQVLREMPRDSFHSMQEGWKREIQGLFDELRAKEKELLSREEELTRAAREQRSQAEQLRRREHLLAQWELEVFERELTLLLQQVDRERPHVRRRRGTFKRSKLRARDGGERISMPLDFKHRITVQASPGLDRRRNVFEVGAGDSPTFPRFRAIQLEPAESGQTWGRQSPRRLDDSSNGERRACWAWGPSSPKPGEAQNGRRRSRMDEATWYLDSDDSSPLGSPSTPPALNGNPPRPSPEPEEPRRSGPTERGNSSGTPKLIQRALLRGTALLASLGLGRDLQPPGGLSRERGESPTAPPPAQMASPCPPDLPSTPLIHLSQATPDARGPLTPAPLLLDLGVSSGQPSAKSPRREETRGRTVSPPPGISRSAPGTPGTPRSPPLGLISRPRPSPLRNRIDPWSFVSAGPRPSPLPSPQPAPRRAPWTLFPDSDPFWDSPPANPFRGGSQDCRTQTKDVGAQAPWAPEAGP

Consider `CCSCc1ccc2c(c1)c1c3c(c4c5cc(CSCC)ccc5n5c4c1n2[C@H]1C[C@](O)(C(=O)OC)[C@]5(C)O1)CNC3=O` [CEP1347], for which, in series [1], the “neuroprotection in in vivo model of HIV-1 infection” value is reported as “neuroprotective”. In series [2], the “protection of neurons from lethal effects of HIV-1 gp120” value is “can protect”. Besides, the “Tat and gp120 induced autophosphorylation of MLK3” value in series [3] is “abolished”.

`COc1cc(-c2cnc3[nH]cc(-c4ccc5[nH]ccc5c4)c3c2)cc(OC)c1OC` [Example 1, 3-(1H-indol-5-yl)-5-(3,4,5-trimethoxyphenyl)-1H-pyrrolo[2,3-b]pyridine]: in series [4], the “AUC Brain” value was “+ (+ indicates ≧500)”.

One may read the IC50 as the concentration that gives 50% inhibition. For the molecule `Nc1ccc(-c2cnc3[nH]cc(-c4ccc5[nH]ccc5c4)c3c2)cn1` [Example 4, 5-(3-(1H-indol-5-yl)-1H-pyrrolo[2,3-b]pyridin-5-yl)pyridin-2-amine], the IC50 in series [5] (read-out: MK3 IC50) was less than 100 nM. The “AUC Brain” value in series [4] was “− (− indicates <500)”.

Turning to `Nc1ncc(-c2cnc3[nH]cc(-c4ccc5[nH]ccc5c4)c3c2)cn1` [Example 9, 5-(3-(1H-indol-5-yl)-1H-pyrrolo[2,3-b]pyridin-5-yl)pyrimidin-2-amine], the IC50 in series [5] (read-out: MK3 IC50) is less than 100 nM. Besides, the “AUC Brain” value in series [4] was “+ (+ indicates ≧500)”.

With `COc1cc(-c2cnc3[nH]cc(-c4cnc(N)nc4)c3c2)cc(OC)c1OC` [Example 17, 5-(5-(3,4,5-trimethoxyphenyl)-1H-pyrrolo[2,3-b]pyridin-3-yl)pyrimidin-2-amine], the IC50 in series [5] (read-out: MK3 IC50) is less than 100 nM. Further, the “AUC Brain” value in series [4] is on record as “− (− indicates <500)”.

For the molecule `COc1cc(-c2cnc3[nH]cc(-c4ccc(N)nc4)c3c2)cc(OC)c1OC` [Example 18, 5-(5-(3,4,5-trimethoxyphenyl)-1H-pyrrolo[2,3-b]pyridin-3-yl)pyridin-2-amine], the IC50 in series [5] (read-out: MK3 IC50) was less than 100 nM. In addition, the “AUC Brain” value in series [4] is “− (− indicates <500)”.

On to `CN1CCN(Cc2ccc(-c3cnc4[nH]cc(-c5ccc6[nH]ccc6c5)c4c3)cc2)CC1` [Example 32, 3-(1H-indol-5-yl)-5-(4-((4-methylpiperazin-1-yl)methyl)phenyl)-1H-pyrrolo[2,3-b]pyridine], for which the “AUC Brain” value in series [4] is reported as “+ (+ indicates ≧500)”.

On to `CC(C)OC(=O)N1CCN(Cc2ccc(-c3cnc4[nH]cc(-c5ccc6[nH]ccc6c5)c4c3)cc2)CC1` [Example 185], for which the IC50 in series [5] fell in the range of 100 to 1000 nM.

For `CC(C)C(=O)N1CCN(Cc2ccc(-c3cnc4[nH]cc(-c5ccc6[nH]ccc6c5)c4c3)cc2)CC1` [Example 186], in series [5] (read-out: MK3 IC50), the IC50 was less than 100 nM.

For the molecule `CCC(=O)N1CCN(Cc2ccc(-c3cnc4[nH]cc(-c5ccc6[nH]ccc6c5)c4c3)cc2)CC1` [Example 187], the IC50 in series [5] (read-out: MK3 IC50) is less than 100 nM.

`COCC(=O)N1CCN(Cc2ccc(-c3cnc4[nH]cc(-c5ccc6[nH]ccc6c5)c4c3)cc2)CC1` [Example 188]: in series [5] (read-out: MK3 IC50), the IC50 is less than 100 nM.

For `CCS(=O)(=O)N1CCN(Cc2ccc(-c3cnc4[nH]cc(-c5ccc6[nH]ccc6c5)c4c3)cc2)CC1` [Example 189], the IC50 in series [5] (read-out: MK3 IC50) is less than 100 nM.

`CS(=O)(=O)N1CCN(Cc2ccc(-c3cnc4[nH]cc(-c5ccc6[nH]ccc6c5)c4c3)cc2)CC1` [Example 190]: in series [5] (read-out: MK3 IC50), the IC50 was less than 100 nM.

Turning to `O=C(CCO)N1CCN(Cc2ccc(-c3cnc4[nH]cc(-c5ccc6[nH]ccc6c5)c4c3)cc2)CC1` [Example 191], in series [5] (read-out: MK3 IC50), the IC50 is less than 100 nM.

As to `COCCC(=O)N1CCN(Cc2ccc(-c3cnc4[nH]cc(-c5ccc6[nH]ccc6c5)c4c3)cc2)CC1` [Example 192], the IC50 in series [5] (read-out: MK3 IC50) is less than 100 nM.

As for `O=C(CC1CC1)N1CCN(Cc2ccc(-c3cnc4[nH]cc(-c5ccc6[nH]ccc6c5)c4c3)cc2)CC1` [Example 193], the IC50 in series [5] (read-out: MK3 IC50) is less than 100 nM.

For the molecule `CC(C)CC(=O)N1CCN(Cc2ccc(-c3cnc4[nH]cc(-c5ccc6[nH]ccc6c5)c4c3)cc2)CC1` [Example 194], in series [5] (read-out: MK3 IC50), the IC50 was less than 100 nM.

In the case of `O=C1CCC(C(=O)N2CCN(Cc3ccc(-c4cnc5[nH]cc(-c6ccc7[nH]ccc7c6)c5c4)cc3)CC2)N1` (stereo not shown) [Example 195], the IC50 in series [5] (read-out: MK3 IC50) was less than 100 nM.

As to `CC(=O)N1CCN(Cc2ccc(-c3cnc4[nH]cc(-c5ccc6[nH]ccc6c5)c4c3)cc2)CC1C` (stereo not shown) [Example 197, 1-(4-(4-(3-(1H-indol-5-yl)-1H-pyrrolo[2,3-b]pyridin-5-yl)benzyl)-2-methylpiperazin-1-yl)ethanone], the IC50 in series [5] (read-out: MK3 IC50) is less than 100 nM.

`CC1CN(Cc2ccc(-c3cnc4[nH]cc(-c5ccc6[nH]ccc6c5)c4c3)cc2)CCN1C` (stereo not shown) [Example 198, 5-(4-((3,4-dimethylpiperazin-1-yl)methyl)phenyl)-3-(1H-indol-5-yl)-1H-pyrrolo[2,3-b]pyridine]: the IC50 in series [5] (read-out: MK3 IC50) was less than 100 nM.

For the molecule `c1cn(Cc2ccc(-c3cnc4[nH]cc(-c5ccc6[nH]ccc6c5)c4c3)cc2)cn1` [Example 199, 5-(4-((1H-imidazol-1-yl)methyl)phenyl)-3-(1H-indol-5-yl)-1H-pyrrolo[2,3-b]pyridine], the IC50 in series [5] (read-out: MK3 IC50) was less than 100 nM.

As to `CN1CCN(Cc2ccc(-c3cnc4[nH]cc(-c5ccc6nccc(O)c6c5)c4c3)cc2)CC1` [Example 200], the IC50 in series [5] (read-out: MK3 IC50) was less than 100 nM.

For the molecule `CN1CCN(Cc2ccc(-c3cnc4[nH]cc(-c5cnc6[nH]ccc6c5)c4c3)cc2)CC1` [Example 202], the IC50 in series [5] (read-out: MK3 IC50) was less than 100 nM.

In the case of `CN1CCN(Cc2ccc(-c3cnc4[nH]cc(-c5ccc6ncccc6c5)c4c3)cc2)CC1` [Example 203], the IC50 in series [5] (read-out: MK3 IC50) is less than 100 nM.

`[2H]c1cc2cc(-c3c[nH]c4ncc(-c5ccc(CN6CCN(C)CC6)cc5)cc34)ccc2[nH]1` [Example 206]: the IC50 in series [5] (read-out: MK3 IC50) is less than 100 nM.

The values are drawn from patent US8846909B2, “Bicyclic heteroaryl kinase inhibitors and methods of use” (University of Rochester, priority 2010, dated 2014).
